Data published in patent US20070218460A1, “Method of Estimating Toxicity of Drug” (TAKEDA PHARMACEUTICAL COMPANY LIMITED, priority 2003, published 2007).

Key:
[1] = system: kiaa1001; experiment: Real-time quantitative PCR of PLsis marker gene expression; type: cell-based, human; settings: HepG2 cells, 24 hr exposure, relative value, control group = 1.0, GAPDH internal standard, n=3
Description: (§1) Using RNeasy Mini Kit (QIAGEN), total RNA was purified from the cells, and cDNA was synthesized in a 100 μL system using TaqMan Reverse Transcription Reagents (PE Applied Biosystems).
(§2) As the primer for glyceraldehyde-3-phosphoric acid dehydrogenase (GAPDH) and VIC labeled probe, those attached to TaqMan GAPDH Control Reagents (PE Applied Biosystems) were used.
(§3) Using 100 μL of the reaction mixture containing 5 μL of cDNA (1×TaqMan Universal PCR Master Mix (PE Applied Biosystems), 200 nM forward primer, 200 nM reverse primer and 200 nM TaqMan probe), 40 cycles of (1 cycle=95° C., 15 sec; 60° C., 1 min) PCR were performed. PCR and fluorescence detection were performed using ABI PRISM Sequence Detector 7000 (PE Applied Biosystems). As the internal standard, GAPDH was used to amend the measurement values. For the determination of significant difference, t-test was used (n=3).
(§4) For each test compound, the expression variation rate of 12 genes each relative to the control group was determined.

[2] = system: depp; experiment: as above; type: cell-based, human; settings: HepG2 cells, 24 hr exposure, relative value, control group = 1.0, GAPDH internal standard, n=3
Description: as §1, §2, §3, §4

[3] = system: lss; experiment: as above; type: cell-based, human; settings: HepG2 cells, 24 hr exposure, relative value, control group = 1.0, GAPDH internal standard, n=3
Description: as §1, §2, §3, §4

[4] = system: tagln; experiment: as above; type: cell-based, human; settings: HepG2 cells, 24 hr exposure, relative value, control group = 1.0, GAPDH internal standard, n=3
Description: as §1, §2, §3, §4

[5] = system: flj22362; experiment: as above; type: cell-based, human; settings: HepG2 cells, 24 hr exposure, relative value, control group = 1.0, GAPDH internal standard, n=3
Description: as §1, §2, §3, §4

[6] = system: hpn; experiment: as above; type: cell-based, human; settings: HepG2 cells, 24 hr exposure, relative value, control group = 1.0, GAPDH internal standard, n=3
Description: as §1, §2, §3, §4

[7] = system: serpina3; experiment: as above; type: cell-based, human; settings: HepG2 cells, 24 hr exposure, relative value, control group = 1.0, GAPDH internal standard, n=3
Description: as §1, §2, §3, §4

[8] = system: nr0b2; experiment: as above; type: cell-based, human; settings: HepG2 cells, 24 hr exposure, relative value, control group = 1.0, GAPDH internal standard, n=3
Description: as §1, §2, §3, §4

[9] = system: fabp1; experiment: as above; type: cell-based, human; settings: HepG2 cells, 24 hr exposure, relative value, control group = 1.0, GAPDH internal standard, n=3
Description: as §1, §2, §3, §4

[10] = system: slc2a3; experiment: as above; type: cell-based, human; settings: HepG2 cells, 24 hr exposure, relative value, control group = 1.0, GAPDH internal standard, n=3
Description: as §1, §2, §3, §4

[11] = system: asah1; experiment: as above; type: cell-based, human; settings: HepG2 cells, 24 hr exposure, relative value, control group = 1.0, GAPDH internal standard, n=3
Description: as §1, §2, §3, §4

[12] = system: mgc4171; experiment: as above; type: cell-based, human; settings: HepG2 cells, 24 hr exposure, relative value, control group = 1.0, GAPDH internal standard, n=3
Description: as §1, §2, §3, §4

[13] = system: HepG2 cells; experiment: Highest concentration at which cells were viable after 72 hr exposure; type: cell-based, human
[14] = system: HepG2 cells; experiment: Electron-microscopic examination of PLsis induction potential (myelin-like structure)
Excerpt: Using 30 kinds of the following commercially available drugs as test compounds, the level of PLsis induction potential was examined with the emergence of an intracellular myelin-like structure or a structure having a high electron density, which is an early image thereof, as an index by electronmicroscopic observation.
HepG2 cells (purchased from ATCC) were exposed to the test compound by a conventional method. HepG2 cells used were of the cell growth phase. The attached HepG2 cells were washed twice with. Dulbecco's phosphate buffered saline (calcium and magnesium salt free; PBS(−))(Dainippon Pharmaceutical Co., Ltd.) containing 0.05 w/v % EDTA, detached with a cell dissociation solution of 0.25 vol % trypsin-1 mmol/L EDTA (Gibco BRL) diluted 2-fold with PBS(−), centrifuged to remove the supernatant, and adjusted to a concentration of 2×10^5 cells/250 μL with a culture medium [Dulbecco's modified Eagle medium (DMEM)(Gibco BRL) supplemented with 50 U/mL penicillin (Gibco BRL)-[…] streptomycin (Gibco BRL) and 5 vol % FBS (Bio whittaker)]. DMSO alone or a culture medium containing the above-mentioned test compound in DMSO solution was dispensed to a well by 250 μL, the above-mentioned cell suspension (250 μL) was added, and cultured in a CO2 incubator (7100; Napco) under an atmosphere of 5% CO2—95% air at 37° C.
After culture for 72 hr, the culture medium was removed, and the cells were fixed with 1 w/v % glutaraldehyde solution. After fixing with 2 w/v % osmic acid for 2 hr by a conventional method and dehydrating with an alcohol series, the cells were embedded in a resin (Quetol 812). Ultrathin slices were prepared and, after electron staining, observed with an electron microscope (H-300; Hitachi) and photographed in 3 or more pictures per each sample (magnification ×5000). The processing after post-fixation was performed by Applied Medical Research.

SMILES | expression variation rate kiaa1001 [1] | expression variation rate depp [2] | expression variation rate lss [3] | expression variation rate tagln [4] | expression variation rate flj22362 [5] | expression variation rate hpn [6] | expression variation rate serpina3 [7] | expression variation rate nr0b2 [8] | expression variation rate fabp1 [9] | expression variation rate slc2a3 [10] | expression variation rate asah1 [11] | expression variation rate mgc4171 [12] | addition concentration (highest concentration at which cells survived after 72 hr of culture) [13] [µmol/L] | frequency of appearance of myelin-like structure [14]
CN(C)CCCN1c2ccccc2CCc2ccc(Cl)cc21 [clomipramine] | 3.83 | 2.08 | 1.52 | 0.78 | 1.46 | 2.39 | 2.03 | 0.98 | 2.36 | 0.63 | 0.82 | 1.41 | 8.3 | +
CC(C)N(CCC(C(N)=O)(c1ccccc1)c1ccccn1)C(C)C (centres unmarked) [disopyramide] | 0.94 | 0.90 | 1.14 | 0.99 | 0.98 | 1.12 | 0.99 | 0.63 | 1.02 | 1.03 | 1.85 | 1.21 | 25 | −
CC[C@H]1OC(=O)[C@H](C)[C@@H](O[C@H]2C[C@@](C)(OC)[C@@H](O)[C@H](C)O2)[C@H](C)[C@@H](O[C@@H]2O[C@H](C)C[C@H](N(C)C)[C@H]2O)[C@](C)(O)C[C@@H](C)C(=O)[C@H](C)[C@@H](O)[C@]1(C)O [erythromycin] | 0.78 | 0.71 | 0.87 | 0.85 | 0.92 | 0.87 | 0.85 | 0.90 | 0.73 | 0.73 | 0.90 | 0.86 | 25 | −
O=C(NCC1CCCCN1)c1cc(OCC(F)(F)F)ccc1OCC(F)(F)F (centres unmarked) [flecainide] | 2.10 | 1.73 | 1.22 | 0.86 | 1.65 | 1.26 | 1.60 | 1.02 | 1.50 | 0.46 | 2.42 | 1.57 | 25 | −
CNCCC(Oc1ccc(C(F)(F)F)cc1)c1ccccc1 (centres unmarked) [fluoxetine] | 1.93 | 3.08 | 3.51 | 0.20 | 2.15 | 2.39 | 1.73 | 2.70 | 2.80 | 0.09 | 6.55 | 1.34 | 8.3 | +++
O=C(CCCN1CCC(O)(c2ccc(Cl)cc2)CC1)c1ccc(F)cc1 [haloperidol] | 1.32 | 1.38 | 1.52 | 0.52 | 0.93 | 1.43 | 1.31 | 1.49 | 1.50 | 0.44 | 0.77 | 1.24 | 8.3 | −
CC(=O)N1CCN(c2ccc(OCC3COC(Cn4ccnc4)(c4ccc(Cl)cc4Cl)O3)cc2)CC1 (centres unmarked) [ketoconazole] | 2.24 | 2.29 | 4.33 | 0.71 | 1.95 | 2.71 | 2.37 | 2.36 | 5.30 | 0.48 | 1.47 | 1.53 | 8.3 | +
C[C@H]1COc2c(N3CCN(C)CC3)c(F)cc3c(=O)c(C(=O)O)cn1c23 [levofloxacin] | 0.70 | 0.83 | 0.75 | 0.90 | 0.83 | 0.83 | 0.92 | 0.79 | 0.88 | 1.07 | 1.10 | 0.79 | 25 | −
CC1COc2c(N3CCN(C)CC3)c(F)cc3c(=O)c(C(=O)O)cn1c23 (centres unmarked) [ofloxacin] | 0.86 | 0.79 | 0.78 | 0.74 | 0.68 | 0.72 | 0.82 | 0.81 | 0.75 | 0.94 | 1.17 | 0.77 | 25 | −
C1CCC(C(CC2CCCCN2)C2CCCCC2)CC1 (centres unmarked) [perhexiline] | 1.98 | 2.55 | 3.10 | 0.26 | 3.42 | 2.22 | 2.50 | 2.09 | 2.49 | 0.22 | 3.12 | 1.93 | 8.3 | ++
